Results taken from patent US8222416B2, “Azaindole glucokinase activators” (Hoffmann-La Roche Inc., priority 2009, dated 2012).

Target: T1, Recombinant human liver GK1 (GST-GK) (Homo sapiens, UniProt P35557)
T1 construct: made in house; host or cells: E. coli
T1 sequence (P35557 1-466 isoform P35557-2): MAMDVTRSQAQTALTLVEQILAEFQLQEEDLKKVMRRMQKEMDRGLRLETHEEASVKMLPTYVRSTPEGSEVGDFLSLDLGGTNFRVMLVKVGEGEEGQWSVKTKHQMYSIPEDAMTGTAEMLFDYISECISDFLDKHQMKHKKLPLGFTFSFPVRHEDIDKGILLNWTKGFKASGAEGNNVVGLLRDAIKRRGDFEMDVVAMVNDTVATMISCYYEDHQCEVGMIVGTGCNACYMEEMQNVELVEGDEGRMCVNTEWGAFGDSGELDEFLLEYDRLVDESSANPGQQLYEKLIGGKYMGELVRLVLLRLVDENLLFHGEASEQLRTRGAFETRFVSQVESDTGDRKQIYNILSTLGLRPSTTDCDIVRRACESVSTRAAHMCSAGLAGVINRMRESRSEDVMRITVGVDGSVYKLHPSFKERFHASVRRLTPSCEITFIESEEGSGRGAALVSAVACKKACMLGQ
Experiment: In vitro glucokinase activity assay (G6PDH-coupled, NADH, OD340)
Format: biochemical
Details: at 30 μM
Protocol: Glucokinase In Vitro Assay Protocol: Glucokinase (GK) was assayed by coupling the production of glucose-6-phosphate to the generation of NADH with glucose-6-phosphate dehydrogenase (G6PDH, 0.75-1 kunits/mg; Boehringer Mannheim, Indianapolis, Ind.) from Leuconostoc mesenteroides as the coupling enzyme (Scheme 2).
Recombinant human liver GK1 was expressed in E. coli as a glutathione S-transferase fusion protein (GST-GK) [Liang et al, 1995] and was purified by chromatography over a glutathione-Sepharose 4B affinity column using the procedure provided by the manufacturer (Amersham Pharmacia Biotech, Piscataway, N.J.).
The assay was conducted at 30° C. in a flat bottom 96-well tissue culture plate from Costar (Cambridge, Mass.) with a final incubation volume of 120 μL. The incubation reaction contained the following: 25 mM Hepes buffer (pH 7.1), 25 mM KCl, 5 mM D-glucose, 1 mM ATP, 1.8 mM NAD, 2 mM MgCl2, 1 μM sorbitol-6-phosphate, 1 mM dithiothreitol, test drug or 10% dimethylsulfoxide, ˜7 units/ml G6PDH, and GK (see below). All organic reagents were >98% pure and were from Boehringer Mannheim with the exceptions of D-glucose and Hepes which were from Sigma Chemical Co, St Louis, Mo. Test compounds were dissolved in dimethylsulfoxide and were added to the incubation reaction minus GST-GK in a volume of 12 μL to yield a final dimethylsulfoxide concentration of 10%. This mix was pre-incubated in the temperature controlled chamber of a SPECTRAmax 250 microplate spectrophotometer (Molecular Devices Corporation, Sunnyvale, Calif.) for 10 minutes to allow temperature equilibrium and then the reaction was started by the addition of 20 μL GST-GK.
After addition of enzyme, the increase in optical density (OD) at 340 nm was monitored spectrophotometrically to determine the rate of change (OD340 per min). The GK activity (OD340/min) in control wells (10% dimethylsulfoxide minus GK activators) was compared with the activity in wells containing test GK activators, and the concentration of activator that produced a 50% increase in the activity of GK, i.e., the SC1.5, was calculated.

| Compound | fold activation of GK [fold at 30] |
| --- | --- |
| COc1cnc2[nH]c(C(CC3CCCC3)c3ccc(C(C)(C)O)cc3)cc2c1 (centres unmarked) [Example 35, 2-{4-[2-Cyclopentyl-1-(5-methoxy-1H-pyrrolo[2,3-b]pyridin-2-yl)-ethyl]-phenyl}-propan-2-ol] | 1.4 |

Same assay, conditions: concentration of activator that produced a 50% increase in the activity of GK; 5 mM D-glucose, 30° C.

| Compound | SC1.5 [µM] |
| --- | --- |
| CS(=O)(=O)c1ccc(C(CC2CCCC2)c2cc3cc(C(O)CO)cnc3[nH]2)cc1 (centres unmarked) [Example 7, 1-{2-[2-Cyclopentyl-1-(4-methanesulfonyl-phenyl)-ethyl]-1H-pyrrolo[2,3-b]pyridin-5-yl}-ethane-1,2-diol] | 25.6 |
| CS(=O)(=O)c1ccc(C(CC2CCCC2)c2cc3cc(CO)cnc3[nH]2)cc1 (centres unmarked) [Example 8, {2-[2-Cyclopentyl-1-(4-methanesulfonyl-phenyl)-ethyl]-1H-pyrrolo[2,3-b]pyridin-5-yl}-methanol] | 3.4 |
| CS(=O)(=O)c1ccc(C(CC2CCCC2)c2cc3cc(CC(O)CO)cnc3[nH]2)cc1 (centres unmarked) [Example 11, 3-{2-[2-Cyclopentyl-1-(4-methanesulfonyl-phenyl)-ethyl]-1H-pyrrolo[2,3-b]pyridin-5-yl}-propane-1,2-diol] | 7.3 |
| COc1cnc2[nH]c(C(CC3CCCC3)c3ccc(S(C)(=O)=O)cc3)cc2c1 (centres unmarked) [Example 12, 2-[2-Cyclopentyl-1-(4-methanesulfonyl-phenyl)-ethyl]-5-methoxy-1H-pyrrolo[2,3-b]pyridine] | 0.18 |
| CN(C)C(=O)COc1cnc2[nH]c(C(CC3CCCC3)c3ccc(S(C)(=O)=O)cc3)cc2c1 (centres unmarked) [Example 13, 2-{2-[2-Cyclopentyl-1-(4-methanesulfonyl-phenyl)-ethyl]-1H-pyrrolo[2,3-b]pyridin-5-yloxy}-N,N-dimethyl-acetamide] | 2.0 |
| COCCOc1cnc2[nH]c(C(CC3CCCC3)c3ccc(S(C)(=O)=O)cc3)cc2c1 (centres unmarked) [Example 15, 2-[2-Cyclopentyl-1-(4-methanesulfonyl-phenyl)-ethyl]-5-(2-methoxy-ethoxy)-1H-pyrrolo[2,3-b]pyridine] | 0.451 |
| CN(C)CCOc1cnc2[nH]c(C(CC3CCCC3)c3ccc(S(C)(=O)=O)cc3)cc2c1 (centres unmarked) [Example 17, (2-{2-[2-Cyclopentyl-1-(4-methanesulfonyl-phenyl)-ethyl]-1H-pyrrolo[2,3-b]pyridin-5-yloxy}-ethyl)-dimethyl-amine] | 3.1 |
| CC(C)Oc1cnc2[nH]c(C(CC3CCCC3)c3ccc(S(C)(=O)=O)cc3)cc2c1 (centres unmarked) [Example 18, 2-[2-Cyclopentyl-1-(4-methanesulfonyl-phenyl)-ethyl]-5-isopropoxy-1H-pyrrolo[2,3-b]pyridine] | 0.719 |
| COc1cnc2[nH]c(C(CC3CCCC3)c3ccc(C(F)(F)F)cc3)cc2c1 (centres unmarked) [Example 20, 2-[2-Cyclopentyl-1-(4-trifluoromethyl-phenyl)-ethyl]-5-methoxy-1H-pyrrolo[2,3b]pyridine] | 0.693 |
| COc1cnc2[nH]c(/C(=C/C3CCCO3)c3ccc(S(C)(=O)=O)cc3)cc2c1 (centres unmarked) [Example 21, 2-[(E)-1-(4-Methanesulfonyl-phenyl)-2-(tetrahydro-furan-2-yl)-vinyl]-5-methoxy-1H-pyrrolo[2,3-b]pyridine] | 0.821 |
| CCOC(=O)C(C)(C)Oc1cnc2[nH]c(C(CC3CCCC3)c3ccc(S(C)(=O)=O)cc3)cc2c1 (centres unmarked) [Example 26, 2-{2-[2-Cyclopentyl-1-(4-methanesulfonyl-phenyl)-ethyl]-1H-pyrrolo[2,3-b]pyridin-5-yloxy}-2-methyl-propionic acid ethyl ester] | 2.3 |
| CC(C)(Oc1cnc2[nH]c(C(CC3CCCC3)c3ccc(S(C)(=O)=O)cc3)cc2c1)C(=O)O (centres unmarked) [Example 27, 2-{2-[2-Cyclopentyl-1-(4-methanesulfonyl-phenyl)-ethyl]-1H-pyrrolo[2,3-b]pyridin-5-yloxy}-2-methyl-propionic acid] | 13.5 |
| CC(C)(CO)Oc1cnc2[nH]c(C(CC3CCCC3)c3ccc(S(C)(=O)=O)cc3)cc2c1 (centres unmarked) [Example 28, 2-{2-[2-Cyclopentyl-1-(4-methanesulfonyl-phenyl)-ethyl]-1H-pyrrolo[2,3-b]pyridin-5-yloxy}-2-methyl-propan-1-ol] | 2.8 |
| CS(=O)(=O)c1ccc(C(CC2CCCC2)c2cc3cc(OCCO)cnc3[nH]2)cc1 (centres unmarked) [Example 30, 2-{2-[2-Cyclopentyl-1-(4-methanesulfonyl-phenyl)-ethyl]-1H-pyrrolo[2,3-b]pyridin-5-yloxy}-ethanol] | 0.8 |
| COc1cnc2[nH]c(C(CC3CCOCC3)c3ccc(S(C)(=O)=O)cc3)cc2c1 (centres unmarked) [Example 31] | 1.9 |
| COc1cnc2[nH]c(C(CC3CCOCC3)c3ccc(C(F)(F)F)cc3)cc2c1 (centres unmarked) [Example 33, 5-Methoxy-2-[2-(tetrahydro-pyran-4-yl)-1-(4-trifluoromethyl-phenyl)-ethyl]-1H-pyrrolo[2,3-b]pyridine] | 3.0 |
| CS(=O)(=O)c1ccc(C(CC2CCCC2)c2cc3cc(CCO)cnc3[nH]2)cc1 (centres unmarked) [Example 36, 2-{2-[2-Cyclopentyl-1-(4-methanesulfonyl-phenyl)-ethyl]-1H-pyrrolo[2,3-b]pyridin-5-yl}-ethanol] | 3.4 |
| CN(C)CC(=O)OCc1cnc2[nH]c(C(CC3CCCC3)c3ccc(S(C)(=O)=O)cc3)cc2c1 (centres unmarked) [Example 37, Dimethylamino-acetic acid 2-[2-cyclopentyl-1-(4-methanesulfonyl-phenyl)-ethyl]-1H-pyrrolo[2,3-b]pyridin-5-ylmethyl-ester] | 4.4 |
| CS(=O)(=O)c1ccc(C(CC2CCCC2)c2cc3cc(CC#N)cnc3[nH]2)cc1 (centres unmarked) [Example 38, {2-[2-Cyclopentyl-1-(4-methanesulfonyl-phenyl)-ethyl]-1H-pyrrolo[2,3-b]pyridin-5-yl}-acetonitrile] | 9.8 |
| CN(C)C(=O)Cc1cnc2[nH]c(C(CC3CCCC3)c3ccc(S(C)(=O)=O)cc3)cc2c1 (centres unmarked) [Example 39, 2-{2-[2-Cyclopentyl-1-(4-methanesulfonyl-phenyl)-ethyl]-1H-pyrrolo[2,3-b]pyridin-5-yl}-N,N-dimethyl-acetamide] | 9.1 |
| CN(C)CCc1cnc2[nH]c(C(CC3CCCC3)c3ccc(S(C)(=O)=O)cc3)cc2c1 (centres unmarked) [Example 40, (2-{2-[2-Cyclopentyl-1-(4-methanesulfonyl-phenyl)-ethyl]-1H-pyrrolo[2,3-b]pyridin-5-yl}-ethyl)-dimethyl-amine] | 9.0 |
| COCc1cnc2[nH]c(C(CC3CCCC3)c3ccc(S(C)(=O)=O)cc3)cc2c1 (centres unmarked) [Example 41, 2-[2-Cyclopentyl-1-(4-methanesulfonyl-phenyl)-ethyl]-5-methoxymethyl-1H-pyrrolo[2,3-b]pyridine] | 2.8 |
| N#Cc1ccc(C(CC2CCCC2)c2cc3cccnc3[nH]2)cc1 (centres unmarked) [Example 43, 4-[2-Cyclopentyl-1-(1H-pyrrolo[2,3-b]pyridin-2-yl)-ethyl]-benzonitrile] | 1.4 |
| COCCCc1cnc2[nH]c(C(CC3CCCC3)c3ccc(S(C)(=O)=O)cc3)cc2c1 (centres unmarked) [Example 44, 2-[2-Cyclopentyl-1-(4-methanesulfonyl-phenyl)-ethyl]-5-(3-methoxy-propyl)-1H-pyrrolo[2,3-b]pyridine] | 4.3 |
| CS(=O)(=O)c1ccc(C(CC2CCCC2)c2cc3cc(CCCO)cnc3[nH]2)cc1 (centres unmarked) [Example 45, 3-{2-[2-Cyclopentyl-1-(4-methanesulfonyl-phenyl)-ethyl]-1H-pyrrolo[2,3-b]pyridin-5-yl}-propan-1-ol] | 14.9 |
| CS(=O)(=O)c1ccc(/C(=C\C2CCC2)c2cc3cc(F)cnc3[nH]2)cc1 [Example 46, 2-[(E)-2-Cyclobutyl-1-(4-methanesulfonyl-phenyl)-vinyl]-5-fluoro-1H-pyrrolo[2,3-b]pyridine] | 0.028 |
| CS(=O)(=O)c1ccc(C(CC2CCC2)c2cc3cc(F)cnc3[nH]2)cc1 (centres unmarked) [Example 47, 2-[2-Cyclobutyl-1-(4-methanesulfonyl-phenyl)-ethyl]-5-fluoro-1H-pyrrolo[2,3-b]pyridine] | 0.415 |
| CS(=O)(=O)c1ccc(C(O)(CC2CCCC2)c2cc3cc(F)cnc3[nH]2)cc1 (centres unmarked) [Example 48, 2-Cyclopentyl-1-(5-fluoro-1H-pyrrolo[2,3-b]pyridin-2-yl)-1-(4-methanesulfonyl-phenyl)-ethanol] | 0.654 |
